The data set in a line: in vitro. To be noted: human, hela cells, % viability.
For orientation: viability means a read-out of living cells in per cent, often relative to untreated cells. Consider `CCCC(=O)NCC(C)c1nsc(NS(=O)(=O)c2cccc(Cl)c2C)n1` (stereo not shown) [CBK200053], for which the viability at 28.5 h, 10 µM came out at 96%.
The figure for `O=S(=O)(c1ccc2ccccc2c1)N1CCCCC1CO` (stereo not shown) [CBK200055] is 100%; for `O=C(OCCC1SC(NC2CC3C=CC2C3)=NC1=O)c1cc(C(F)(F)F)ccc1C(F)(F)F` (stereo not shown) [CBK200058T] it is 88.1%.
For the molecule `O=C(OCCC1SC(NC2CC3C=CC2C3)=NC1=O)c1c(F)cccc1Cl` (stereo not shown) [CBK200061T], the viability at 28.5 h, 10 µM amounted to 88.7%.
The figure for `CC(C)(C)c1ccc(S(=O)(=O)N2CCCC[C@H]2COC(=O)c2nccnc2C(=O)O)cc1` [CBK200065] is 91.6%; for `CC(C)(C)c1ccc(S(=O)(=O)N2CCCCC2CCO)cc1[N+](=O)[O-]` (stereo not shown) [CBK200067] it is 93.9%.
In the case of `C1CCc2nnc(C34CC5CC(CC(C5)C3)C4)n2CC1` [CBK200068], the viability at 28.5 h, 10 µM was found to be 83.5%.
Turning to `CN(C)CCCNC(=O)C1CCCCN1S(=O)(=O)c1ccc(C(C)(C)C)cc1` (stereo not shown) [CBK200070], the viability at 28.5 h, 10 µM came to 101%.
As for `C=C(C)Cn1c(SCC(C)C)nnc1-c1ccccc1OC` [CBK200071], the viability at 28.5 h, 10 µM came to 91.5%.
For the molecule `C=C(C)Cn1c(SC(C)C)nnc1-c1ccccc1OC` [CBK200072], the viability at 28.5 h, 10 µM was 97.1%.
In the case of `C=C(C)Cn1c(SC(C)C)nnc1-c1cccnc1` [CBK200073], the viability at 28.5 h, 10 µM was found to be 85.7%.
Turning to `C=C(C)Cn1c(SCC(C)C)nnc1-c1ccccc1Cl` [CBK200078], the viability at 28.5 h, 10 µM turned out to be 92.4%.
Next, `C=C(C)Cn1c(SC(C)C)nnc1-c1ccccc1Cl` [CBK200079]: 99.9%.
With `C=C(C)Cn1c(SCC(C)C)nnc1-c1ccccc1OC(F)(F)F` [CBK200080], the viability at 28.5 h, 10 µM turned out to be 97.7%.
On to `C=C(C)Cn1c(SC(C)C)nnc1-c1ccccc1OC(F)(F)F` [CBK200081], for which the viability at 28.5 h, 10 µM is 114%.
The figure for `C=C(C)Cn1c(Cc2ccccc2)nnc1SCC(C)C` [CBK200082] is 102%; for `C=C(C)Cn1c(Cc2ccccc2)nnc1SC(C)C` [CBK200083] it is 92%; for `C=C(C)Cn1c(SCC(C)C)nnc1-c1cccs1` [CBK200086] it is 96.5%.
For the molecule `C=C(C)Cn1c(Cc2c[nH]c3ccccc23)nnc1SCC(C)C` [CBK200087T], the viability at 28.5 h, 10 µM was 98.6%.
`Cc1ccccc1-c1nnc2n1CCCN2` [CBK200089]: the viability at 28.5 h, 10 µM was found to be 115%.
As for `C=C(C)Cn1c(SCC(C)C)nnc1-c1ccccc1C(=O)O` [CBK200093], the viability at 28.5 h, 10 µM was 90.1%.
Consider `C=C(C)Cn1c(SCC(C)C)nnc1-c1ccc(O)nc1` [CBK200094], for which the viability at 28.5 h, 10 µM was determined as 92.2%.
On to `C=C(C)Cn1c(SCC(C)C)nnc1-c1scc(C)c1Cl` [CBK200095], for which the viability at 28.5 h, 10 µM was determined as 92.7%.
Consider `C=C(C)Cn1c(SCC(C)C)nnc1-c1ccccc1C(=O)NC(C)C` [CBK200096], for which the viability at 28.5 h, 10 µM came to 87.8%.
Take `CC(C)Cc1nnc(-c2ccccc2Cl)n1CC1CC1` [CBK200097]: the viability at 28.5 h, 10 µM stood at 98.1%.
As for `COc1cc(C(O)c2cc3c(cc2CO)OCO3)cc(OC)c1OC` (stereo not shown) [CBK200098], the viability at 28.5 h, 10 µM was 100%.
For `COC(=O)C1C(=O)c2cc3c(cc2C1c1cc(OC)c(OC)c(OC)c1)OCO3` (stereo not shown) [CBK200099], the viability at 28.5 h, 10 µM amounted to 92.5%.
In the case of `COc1ccc(C(C)c2cc3c(cc2O)OCO3)cc1` (stereo not shown) [CBK200100], the viability at 28.5 h, 10 µM was 90.3%.
On to `COc1ccc(C(C)c2cc3c(cc2O)OCO3)c(F)c1` (stereo not shown) [CBK200101], for which the viability at 28.5 h, 10 µM was 98.1%.
As to `COc1ccc(C(C)c2cc3c(cc2N)OCO3)cc1` (stereo not shown) [CBK200102T], the viability at 28.5 h, 10 µM amounted to 87.2%.
Take `COC(=O)[C@H]1Cc2cc3c(cc2[C@H]1c1cc(OC)c(OC)c(OC)c1)OCO3` [CBK200105]: the viability at 28.5 h, 10 µM was determined as 54.8%.
`COc1cc([C@@H]2c3cc4c(cc3[C@H](O)[C@H]2C(=O)Nc2ccccc2)OCO4)cc(OC)c1OC` [CBK200106]: the viability at 28.5 h, 10 µM was 101%.
Regarding `COc1cc(C(C)c2cc3c(cc2OCC(=O)O)OCO3)cc(OC)c1OC` (stereo not shown) [CBK200109], the viability at 28.5 h, 10 µM is 90.5%.
In the case of `COc1ccc(C(C)c2cc3c(cc2OCCO)OCO3)c(F)c1` (stereo not shown) [CBK200111], the viability at 28.5 h, 10 µM amounted to 60.4%.
With `COc1ccc(C(C)c2cc3c(cc2OC)OCO3)c(F)c1` (stereo not shown) [CBK200112], the viability at 28.5 h, 10 µM was 53.3%.
In the case of `O=C(O)Cc1sc(NCCN2CCOCC2)nc1-c1ccccc1` [CBK200113T], the viability at 28.5 h, 10 µM turned out to be 88.7%.
Consider `O=C(O)CC1SC(Nc2ccc(F)cc2F)=NC1=O` (stereo not shown) [CBK200115], for which the viability at 28.5 h, 10 µM was 99.3%.
Regarding `C[C@@H]1CN(C(=O)c2ccc3[nH]cnc3c2)C[C@H](C)O1` [CBK200120], the viability at 28.5 h, 10 µM was 106%.
`Cc1nc(C(F)(F)F)ccc1COC(=O)N1CCOCC1` [CBK200122]: the viability at 28.5 h, 10 µM is 85.9%.
Regarding `Cc1cnc(COC(=O)N2C[C@@H](C)O[C@@H](C)C2)cn1` [CBK200124], the viability at 28.5 h, 10 µM worked out at 81.4%.
Take `O=C(Nc1cnc2ccccc2c1)OCCc1cccnc1` [CBK200126]: the viability at 28.5 h, 10 µM was determined as 93.5%.
The figure for `Cc1cc(COC(=O)Nc2ccc3nc(C)ccc3c2)cc(C)n1` [CBK200127] is 90.5%; for `Cc1ncccc1COC(=O)Nc1cnc2ccccc2c1` [CBK200128] it is 95.9%.
On to `CN1CCC(COC(=O)Nc2ccc3cc[nH]c3c2)CC1` [CBK200130], for which the viability at 28.5 h, 10 µM is 98.7%.
Regarding `Cc1cc(COC(=O)N2CCc3ccccc32)cc(C)n1` [CBK200134], the viability at 28.5 h, 10 µM turned out to be 81.4%.
In the case of `Cc1ccc(NC(=O)OCCN2CCN(C)CC2)c(C)n1` [CBK200135], the viability at 28.5 h, 10 µM came to 106%.
For the molecule `Cc1cc(COC(=O)NCc2ccncc2)cc(C)n1` [CBK200136], the viability at 28.5 h, 10 µM was found to be 99.4%.
Regarding `Cc1ncccc1COC(=O)NCCc1ccccn1` [CBK200137], the viability at 28.5 h, 10 µM worked out at 104%.
Next, `Cc1ncccc1COC(=O)N1Cc2ccccc2C1` [CBK200138]: 91.1%.
Next, `CN1CCN(CCOC(=O)NCc2ccnc3ccccc23)CC1` [CBK200148]: 94%.
In the case of `Cc1cc(COC(=O)N2CCCC(C(F)(F)F)C2)cc(C)n1` (stereo not shown) [CBK200150], the viability at 28.5 h, 10 µM is 92.8%.
Regarding `Cc1cc(COC(=O)N2CCCC(F)(F)C2)cc(C)n1` [CBK200151], the viability at 28.5 h, 10 µM worked out at 125%.
As for `Cc1cc(COC(=O)N2CCC(CO)CC2)cc(C)n1` [CBK200152], the viability at 28.5 h, 10 µM came to 91%.
Regarding `Cc1cc(COC(=O)N2CCSCC2)cc(C)n1` [CBK200153], the viability at 28.5 h, 10 µM is 107%.
Next, `Cc1ncccc1COC(=O)N1CCC(C(F)(F)F)CC1` [CBK200154]: 102%; `Cc1ncccc1COC(=O)N1CCCC(F)C1` (stereo not shown) [CBK200155]: 118%.
The figure for `O=C(OCCc1ccncc1)N1CCC(F)(F)CC1` [CBK200158] is 105%; for `O=C(OCCc1cccnc1)N1CCSCC1` [CBK200160] it is 103%.
In the case of `O=C(OCc1csc2ccc(Cl)cc12)N1CCOCC1` [CBK200164], the viability at 28.5 h, 10 µM was 94.7%.
Consider `COc1ncccc1C(=O)N1CCN(c2ccccc2)CC1` [CBK200166], for which the viability at 28.5 h, 10 µM came out at 103%.
`COc1ccc(C(=O)N2CCN(Cc3ccccc3)CC2)c(OC)n1` [CBK200169]: the viability at 28.5 h, 10 µM was 99.2%.
With `Cc1ccc(C(=O)N2CCN(Cc3ccccc3)CC2)cn1` [CBK200170], the viability at 28.5 h, 10 µM was 93.6%.
The figure for `O=C(c1cc2ccccc2[nH]1)N1CCN(Cc2ccccc2)CC1` [CBK200172] is 118%; for `Cc1noc(C)c1C(=O)N1CCN(Cc2ccccc2)CC1` [CBK200173] it is 90.9%; for `O=C(c1nccc2ccccc12)N1CCN(Cc2ccccc2)CC1` [CBK200176] it is 98%.
For `Cn1cncc1C(=O)N1CCN(Cc2ccccc2)CC1` [CBK200178], the viability at 28.5 h, 10 µM came to 98.2%.
As for `Cc1ccc(C(=O)N2CCC(Cc3ccccc3)CC2)cn1` [CBK200179], the viability at 28.5 h, 10 µM was determined as 94.7%.
Take `O=C(c1c[nH]c2ccccc12)N1CCC(Cc2ccccc2)CC1` [CBK200180]: the viability at 28.5 h, 10 µM is 91.3%.
The figure for `Cn1cccc1C(=O)N1CCC(Cc2ccccc2)CC1` [CBK200182] is 102%.
For the molecule `O=C(c1ccno1)N1CCC(Cc2ccccc2)CC1` [CBK200185], the viability at 28.5 h, 10 µM was 112%.
As for `CCOc1ccsc1C(=O)N1CCC(Cc2ccccc2)CC1` [CBK200186], the viability at 28.5 h, 10 µM was 114%.
Regarding `Cc1cc(C(=O)N2CCC(Cc3ccccc3)CC2)n[nH]1` [CBK200187], the viability at 28.5 h, 10 µM was 84.2%.
The figure for `O=C(c1cscn1)N1CCC(Cc2ccccc2)CC1` [CBK200188] is 103%; for `COc1ccc(C(=O)NCc2ccccc2)c(OC)n1` [CBK200190] it is 142%; for `O=C(c1cccc2[nH]ccc12)N1CCN(CCc2ccccc2)CC1` [CBK200203] it is 104%.
The figure for `O=C(c1cncnc1)N1CCC(Cc2ccccc2)CC1` [CBK200212] is 92.8%; for `O=C(c1cnc2ccccc2n1)N1CCN(CCc2ccccc2)CC1` [CBK200214] it is 91%.
Next, `Cc1ccc(NC(=O)c2ccc3nccnc3c2)c(C)n1` [CBK200219]: 93.6%; `Cc1noc(C)c1NC(=O)c1cnc2ccccc2n1` [CBK200220]: 98.1%; `Cc1noc(C)c1NC(=O)c1ccc2nccnc2c1` [CBK200221]: 84.1%.
In the case of `Cc1noc(C)c1C(=O)N1CCN(CCc2ccccc2)CC1` [CBK200225], the viability at 28.5 h, 10 µM was found to be 95.8%.
As for `COc1ncccc1C(=O)N1CCN(CCc2ccccc2)CC1` [CBK200226], the viability at 28.5 h, 10 µM was 88.4%.
Next, `O=C(c1ccc(CCN2CCCC2)nc1)N1CCN(CCc2ccccc2)CC1` [CBK200227]: 91.6%; `COc1ccc(C(=O)N2C[C@@H](C)O[C@@H](C)C2)c(OC)n1` [CBK200231]: 92.2%; `C[C@@H]1CN(C(=O)c2n[nH]c3ccccc23)C[C@H](C)O1` [CBK200232]: 98.6%.

Values taken from PMC12040169 (PLOS Biology, 2025).
